In patent publication US20250340575A1, “4-AMINOPYRROLO[2,1-F][1,2,4]TRIAZINES AND PREPARATION AND USES THEREOF” (Biosplice Therapeutics, Inc., priority 2024, published 2025):

Molecular target: recombinant DYRK1A kinase (Homo sapiens, UniProt Q13627)
Experiment: DYRK1A kinase assay (Ser/Thr 18 peptide Z-lyte FRET)
Assay type: biochemical
Details: DYRK1A 0.25 μg/mL, ATP 15 μM, Ser/Thr peptide 18 4 μM, one hour at room temperature, 11-point dose-response from 10 μM

Row | SMILES | IC50
1 | Cc1nc2ccc(-c3c(F)cn4nc(N[C@@H]5CCN(C6COC6)CC5(F)F)nc(N)c34)nc2n1CCF [Compound 149, (R)—N^2-(3,3-Difluoro-1-(oxetan-3-yl)piperidin-4-yl)-6-fluoro-5-(3-(2-fluoroethyl)-2-methyl-3H-imidazo[4,5-b]pyridin-5-yl)pyrrolo[2,1-f][1,2,4]triazine-2,4-diamine] | 0.8 nM
2 | CNc1nc(N[C@H]2CCN(C3COC3)C[C@H]2F)nn2ccc(-c3ccc4nc(C)n(CCF)c4n3)c12 [Compound 157, N^2-((3R,4S)-3-Fluoro-1-(oxetan-3-yl)piperidin-4-yl)-5-(3-(2-fluoroethyl)-2-methyl-3H-imidazo[4,5-b]pyridin-5-yl)-N^4-methylpyrrolo[2,1-f][1,2,4]triazine-2,4-diamine] | 15.8 nM
3 | CNc1nc(N[C@@H]2CCN(C3COC3)CC2(F)F)nn2ccc(-c3ccc4nc(C)n(CCF)c4n3)c12 [Compound 160, (R)—N^2-(3,3-Difluoro-1-(oxetan-3-yl)piperidin-4-yl)-5-(3-(2-fluoroethyl)-2-methyl-3H-imidazo[4,5-b]pyridin-5-yl)-N^4-methylpyrrolo[2,1-f][1,2,4]triazine-2,4-diamine] | 2.2 nM
4 | CNc1nc(N[C@H]2CC[C@](C)(O)CC2)nn2cc(F)c(-c3ccc4nc(C)n(CCF)c4n3)c12 [Compound 162, (1r,4r)-4-((6-Fluoro-5-(3-(2-fluoroethyl)-2-methyl-3H-imidazo[4,5-b]pyridin-5-yl)-4-(methylamino)pyrrolo[2,1-f][1,2,4]triazin-2-yl)amino)-1-methylcyclohexan-1-ol] | 3.1 nM
5 | CNc1nc(N[C@H]2CCN(C(C)=O)C[C@H]2F)nn2cc(F)c(-c3ccc4nc(C)n(CCF)c4n3)c12 [Compound 163, 1-((3R,4S)-3-Fluoro-4-((6-fluoro-5-(3-(2-fluoroethyl)-2-methyl-3H-imidazo [4,5-b]pyridin-5-yl)-4-(methylamino)pyrrolo[2,1-f][1,2,4]triazin-2-yl)amino)piperidin-1-yl)ethan-1-one] | 1.3 nM
6 | CNc1nc(N[C@H]2CCN(C3COC3)C[C@H]2F)nn2cc(F)c(-c3ccc4nc(C)n(CCF)c4n3)c12 [Compound 164, 6-Fluoro-N^2-((3R,4S)-3-fluoro-1-(oxetan-3-yl)piperidin-4-yl)-5-(3-(2-fluoroethyl)-2-methyl-3H-imidazo[4,5-b]pyridin-5-yl)-N^4-methylpyrrolo[2,1-f][1,2,4]triazine-2,4-diamine] | 1.8 nM
7 | CNc1nc(N[C@@H]2CCN(C)CC2(F)F)nn2cc(F)c(-c3ccc4nc(C)n(CCF)c4n3)c12 [Compound 165, (R)—N^2-(3,3-Difluoro-1-methylpiperidin-4-yl)-6-fluoro-5-(3-(2-fluoroethyl)-2-methyl-3H-imidazo[4,5-b]pyridin-5-yl)-N^4-methylpyrrolo[2,1-f][1,2,4]triazine-2,4-diamine] | 2.3 nM
8 | CNc1nc(N[C@@H]2CCN(C(C)=O)CC2(F)F)nn2cc(F)c(-c3ccc4nc(C)n(CCF)c4n3)c12 [Compound 166, (R)-1-(3,3-Difluoro-4-((6-fluoro-5-(3-(2-fluoroethyl)-2-methyl-3H-imidazo [4,5-b]pyridin-5-yl)-4-(methylamino)pyrrolo[2,1-f][1,2,4]triazin-2-yl)amino)piperidin-1-yl)ethan-1-one] | 2.9 nM
9 | CNc1nc(N[C@@H]2CCN(C3COC3)CC2(F)F)nn2cc(F)c(-c3ccc4nc(C)n(CCF)c4n3)c12 [Compound 168, (R)—N^2-(3,3-Difluoro-1-(oxetan-3-yl)piperidin-4-yl)-6-fluoro-5-(3-(2-fluoroethyl)-2-methyl-3H-imidazo[4,5-b]pyridin-5-yl)-N^4-methylpyrrolo[2,1-f][1,2,4]triazine-2,4-diamine] | 1.4 nM
10 | CNc1nc(N[C@H]2CCN(C(=O)CO)C[C@H]2F)nn2ccc(-c3ccc4nc(C)n(CC(F)F)c4n3)c12 [Compound 174, 1-((3R,4S)-4-((5-(3-(2,2-Difluoroethyl)-2-methyl-3H-imidazo[4,5-b]pyridin-5-yl)-4-(methylamino)pyrrolo[2,1-f][1,2,4]triazin-2-yl)amino)-3-fluoropiperidin-1-yl)-2-hydroxyethan-1-one] | 2 nM
11 | CNc1nc(N[C@@H]2CCN(C(=O)CO)CC2(F)F)nn2ccc(-c3ccc4nc(C)n(CC(F)F)c4n3)c12 [Compound 175, (R)-1-(4-((5-(3-(2,2-Difluoroethyl)-2-methyl-3H-imidazo[4,5-b]pyridin-5-yl)-4-(methylamino)pyrrolo[2,1-f][1,2,4]triazin-2-yl)amino)-3,3-difluoropiperidin-1-yl)-2-hydroxyethan-1-one] | 1.3 nM
12 | CNc1nc(N[C@@H]2CCN(C(C)=O)CC2(F)F)nn2cc(F)c(-c3ccc4nc(C)n(CC(F)F)c4n3)c12 [Compound 177, (R)-1-(4-((5-(3-(2,2-Difluoroethyl)-2-methyl-3H-imidazo[4,5-b]pyridin-5-yl)-6-fluoro-4-(methylamino)pyrrolo[2,1-f][1,2,4]triazin-2-yl)amino)-3,3-difluoropiperidin-1-yl)ethan-1-one] | 1.5 nM

The remaining lines, values ahead:

Row | IC50 | SMILES
13 | 4.9 nM | CCn1nnc2ccc(-c3c(F)cn4nc(N[C@H]5CCN(C6COC6)C[C@H]5F)nc(NC)c34)nc21 [Compound 214, 5-(3-Ethyl-3H-[1,2,3]triazolo[4,5-b]pyridin-5-yl)-6-fluoro-N^2-((3R,4S)-3-fluoro-1-(oxetan-3-yl)piperidin-4-yl)-N^4-methylpyrrolo[2,1-f][1,2,4]triazine-2,4-diamine]
14 | 2.3 nM | CCn1nnc2ccc(-c3c(F)cn4nc(N[C@@H]5CCN(C)CC5(F)F)nc(NC)c34)nc21 [Compound 215, (R)—N^2-(3,3-Difluoro-1-methylpiperidin-4-yl)-5-(3-ethyl-3H-[1,2,3]triazolo [4,5-b]pyridin-5-yl)-6-fluoro-N^4-methylpyrrolo[2,1-f][1,2,4]triazine-2,4-diamine]
15 | 2.6 nM | CCn1nnc2ccc(-c3c(F)cn4nc(N[C@@H]5CCN(C(C)=O)CC5(F)F)nc(NC)c34)nc21 [Compound 216, (R)-1-(4-((5-(3-Ethyl-3H-[1,2,3]triazolo[4,5-b]pyridin-5-yl)-6-fluoro-4-(methylamino)pyrrolo[2,1-f][1,2,4]triazin-2-yl)amino)-3,3-difluoropiperidin-1-yl)ethan-1-one]
16 | 5.2 nM | Nc1nc(N[C@H]2CCN(C3COC3)C[C@H]2F)nn2ccc(-c3ccc4nnn(CCF)c4n3)c12 [Compound 220, N^2-((3R,4S)-3-Fluoro-1-(oxetan-3-yl)piperidin-4-yl)-5-(3-(2-fluoroethyl)-3H-[1,2,3]triazolo[4,5-b]pyridin-5-yl)pyrrolo[2,1-f][1,2,4]triazine-2,4-diamine]
17 | 2.8 nM | CN1CC[C@@H](Nc2nc(N)c3c(-c4ccc5nnn(CCF)c5n4)ccn3n2)C(F)(F)C1 [Compound 221, (R)—N^2-(3,3-Difluoro-1-methylpiperidin-4-yl)-5-(3-(2-fluoroethyl)-3H-[1,2,3]triazolo[4,5-b]pyridin-5-yl)pyrrolo[2,1-f][1,2,4]triazine-2,4-diamine]
18 | 3.2 nM | CC(=O)N1CC[C@@H](Nc2nc(N)c3c(-c4ccc5nnn(CCF)c5n4)ccn3n2)C(F)(F)C1 [Compound 222, (R)-1-(4-((4-Amino-5-(3-(2-fluoroethyl)-3H-[1,2,3]triazolo[4,5-b]pyridin-5-yl)pyrrolo[2,1-f][1,2,4]triazin-2-yl)amino)-3,3-difluoropiperidin-1-yl)ethan-1-one]
